Laboratory results published in US11497796B2, “Agents directed against a cis RGMa/neogenin interaction or lipid rafts and use of the same in methods of treatment” (UNIVERSITY HEALTH NETWORK, priority 2013, dated 2022).

Tests used:
[1] = tested on: retinal ganglion cells (RGCs); assay: Retinal organotypic cultures (whole mounts), propidium iodide cell death; format: cell-based; details: for reduction of cell death (relative PI intensity): agent in the medium
Description: (A) HEK293 cells that stably express RGMa (FIG. 11) were transfected with empty plasmid (Ctrl) or Neogenin (Neo). Neogenin induced cell death (arrows) when compared to control. (B) Quantification of cell death in Neogenin-transfected cells that were incubated in BSA (Neo+Ctrl), 4Ig (1 μg/ml), N-Raft (1 μg/ml), Noggin (100 nM), or MβCD (10 mM). […] Data were average±SEM (n=3 independent experiments), *p<0.0001. (C) Representative images and (D) Quantification of cell death in chick E5 tecta electroporated with GFP- and a Neogenin-expression plasmid and then injected with N-RGMa50-99 (Ctrl; 1 μg/ml), 4Ig (1 μg/ml), or N-Raft (1 μg/ml) and subjected to TUNEL assay. […] Data were an average±SEM from 3 different tecta/conditions (*p<0.001). Bar, 100 μm. (E) Representative images and (F) Quantification of retinal whole mounts incubated for 4 days with control peptide (1 μg/ml), 4Ig (1 μg/ml), N-Raft (1 μg/ml), or MβCD (10 mM) and dead cells were stained with Propidium Iodide (PI). Images from 9 whole mounts per condition from 3 independent experiments were taken at the same intensities and the fluorescence measured using ImageJ. […] Bar, 500 μm. (G) Fluorescence micrographs of flat-mounted retinas depicting Fluorogold-labeled retinal ganglion cells (RGCs) in injured retinas at 14 days following axotomy. Control retinas (Ctrl) had few surviving RGCs. 4Ig, N-raft or MβCD increased cell survival. Bar, 200 μm. (H) Representations of the retinal areas selected in our analyses. […] Data were average±SEM (n=6 eyes), *p<0.01.
For this study, retinal organotypic cultures were used, in which axotomy of retinal ganglion cells (RGCs) deprived the cells of tropic factors and induced apoptosis. Cell death was detected using propidium iodide (PI) and all images were taken at the same intensity with the RGC-layer in focus. Cell death was gauged by measuring the relative PI intensity of whole mounts.

[2] = tested on: retinal ganglion cells (RGCs); assay: RGC survival in vivo 14 days after axotomy; parameters: species or system rat; details: for increase of RGC survival vs. control / RGC survival: injected intra-ocularly, 14 days after axotomy; for RGC survival: control 361±19
[3] = tested on: RGC axons in injured optic nerve; assay: Optic nerve crush, RGC axon regeneration (GAP-43) and intraretinal integrity; format: in vivo, rat; details: for intraretinal integrity of RGC axons (CTB-FITC): after optic nerve crush
Description: All animals were female Sprague-Dawley rats weighing 250-300 g, which were kept in a pathogen free environment. […] Injections were performed using a 10-μl Hamilton syringe actuated by a computer controlled Picopump (World Precision Instruments). […] The needle was left in place for 10 min after each injection and slowly withdrawn to prevent reflux of the injected solutions up the needle tract.
Additionally, for crushing nerve surgical procedures, animals were placed in a stereotaxic frame and ventilated with isoflurane (2%; 0.8 L/min O2) through a gas anesthesia mask. […] The optic nerve was crushed using fine self-closing forceps for 6 seconds. Eventually, the orbital contents were gently returned to their original location and the initial incision was closed. Following surgery, under a heat lamp, animal were maintained at 37° C. in the normothermic condition and they were given Ketoprofen (5 mg/mL, dosage for rats: 0.1 mL/100 g bodyweight) and sterile saline to ease postsurgical recovery.
In order to evaluate the effects of 4Ig, N-Raft, and MβCD on RGC survival and regeneration after optic nerve crush, 4 μl intraocular injection of 4Ig (250 ng/μl) and N-Raft (150 ng/μl) solutions were delivered at 3 and 10 days after injury. Additionally, these two groups received 4Ig and N-Raft in a dose of 1 mg/kg, via intrajugular vein at 3 and 10 days postcrush. Separately, animals in MβCD group, received intraperitoneal injection of MβCD at 1000 mg/kg/week for 3 weeks after nerve crush on a once-a-day schedule.
Firstly, RGC axon regeneration and intraretinal integrity was examined at twenty-one days after optic nerve crush. […]. CTB-FITC was anterogradly transported within the axon to reach the synaptic membrane.
RGC axon regeneration was examined at twenty-one days after optic nerve crush. Animals were perfused with 4% paraformaldehyde via the ascending aorta, while the descending aorta was clamped off, and the optic nerves were removed. The nerves were post-fixed overnight in the same fixative solution, plus 30% sucrose in PBS for 7 days at […]. The fixed nerves were consecutively sectioned at 14 μm in thickness with a Leica CM1950 cryostat microtome. The slides were first incubated overnight at 4° C. in primary antisera directed against growth associated protein-43 (GAP-43), a marker of regenerating retinal ganglion cell axons in both neonatal and adult RGCs. Primary antisera (rabbit polyclonal, 1:250, Cell Signaling Technology/NEB) were diluted in PBS containing 0.3% Triton X-100 and 3% normal goat serum. Following primary antibody incubation, sections were rinsed three times for 15 minutes in PBS and followed by three hours incubation with FITC labeled secondary antibody at room temperature.
The slides were then rinsed three times for 15 minutes in PBS before cover slipping with 50:50 glycerol/PBS. The total number of regenerating axon growth cones within bins of the optic nerve, beginning anterior to the crush site and proceeding distally, were quantified. The bins were as follows: 0-250, 250-500, and >500 μm. A total of four equally spaced sections through the width of each optic nerve were examined and quantified using a Leica DM LFSA microscope (20× objective) with an Andor iXon 885+ camera, with EMgain applied.

| Molecule | reduction of cell death (relative PI intensity) [1] | increase of RGC survival vs. control [2] | RGC survival [2] [cells/mm^2] | regeneration beyond the lesion site ([3]; 21 days after crush) | intraretinal integrity of RGC axons (CTB-FITC) [3] | enhancement of cell survival vs. control ([1]; perturbing lipid rafts) | increase of RGC survival ([2]; systemic application (intraperitoneal, IP)) | average number of axons per section, 250-500 μm ([3]; IP injection) | average number of axons per section, greater than 500 μm ([3]; IP injection) | average number of axons per section, less than 250 μm ([3]; IP injection) | average number of axons per section higher than controls ([3]; IP injection, all distances) [fold] | increase in number of regenerating axons relative to controls ([3]; 21 days after crush) [fold] | number of regenerating axons, greater than 500 μm ([3]; 21 days after crush, controls 76±24) | number of regenerating axons, 250-500 μm ([3]; 21 days after crush, controls 108±12) | number of regenerating axons, less than 250 μm ([3]; 21 days after crush, controls 224±36) |
| --- | --- | --- | --- | --- | --- | --- | --- | --- | --- | --- | --- | --- | --- | --- | --- |
| N-Raft: peptide spanning amino acids 28-73 of RGMa (SEQ ID NO:2) (SPCKILKCNSEFWAATSGSHHLGAEETPEFCTALRAYAHCTRRTAR; N-Raft - amino acids 28-73 of RGMa) | about 40% | about 2 fold | 652±24 | comparable to 4Ig | thicker axon bundles throughout the retina |  |  |  |  |  |  |  |  |  |  |
| methyl-β-cyclodextrin [MβCD, reference compound] |  |  |  |  | thicker axon bundles throughout the retina | about 50% | about 2 fold | 10.7±0.9 | 8.4±1.4 | 23.7±1.2 | 7.1 |  |  |  |  |
| 4Ig: four immunoglobulin-like domains of Neogenin, amino acids 1 to 383 of Accession No. AAC59662 (SEQ ID NO:1) (protein, listed as Gallus gallus, Neogenin - Accession No. AAC59662) RSGPRSPLTGSVVRTFTPFYFLVEPMDILSVRGASVIMNCSSYCETPPKIEWKKDGTLLNLVSDDRRQLLPDGSLLINSVVHSKHNKPDEGYYQCVATVESLGSIVSRTAKLTVAGLPRFTSQPELSSVYKGNSAILNCEVNVDLAPFVRWEQDRQPLSLDDRVFKLPSGALLIGNATDTDGGFYRCVIESGGTPKYSEEAELKILPDPEEPQSLVFVRQPSSLTKVTGQNAVFPCVAGGFPTPYVRWTKNGEELITEDSERFALRAGGSLLISDVTEEDVGTYTCIADNENETIEAQAELAVQVPPEFLKRPANIYAHESMDIVFECEVTGKPTPTVKWVKNGDVVIPSDYFKIVKEHNLQVLGLVKSDEGFYQCIAENDVGNAQAGAQLIILDLDVAIPTLPPTSLTSATNDHLAPATTGPLPTAPRDVVATLVSTRFIRLTWRTPVSDPQGDNLTYSIFYTKEGINRERVENTSRPGETQVMIQNLMPETVYVFRVVAQNKHGHGESSAPLKVATQPEVQLPGPAPNIRAYAGSPTSVTVTWETPLSGNGEIQNYKLYYMEKGQDSEQDVDVAGLSYTITGLKKYTEYSFRVVAYNKHGPGVSTQDVVVRTLSDVPSAAPQNLTLEARNSKSIMLHWQPPPAGTHSGQITGYKIRYRKVSRKSDVTESVGGTQLFQLIEGLERGTEYNFRIAAMTVNGTGPATDWVSAETFESDLDESRVPEVPSSLHVRPLVTSIVVSWTPPENQNIVVRGYAIGYGIGSPHAQTIKVDYKQRYYTIENLDPSSHYVITLKAFNNVGEGIPLYESAVTRPHSDTSEVDLFVINAPYTPVPDPSPMMPPVGVQASILSHDTIRITWADNSLPKNQKITDARYYTVRWKTNIPANTKYKTANATTLSYLVTGLKPNTLYEFSVMVTKGRRSSTWSMTAHGTTFELVPTSPPKDVTVVSKEGKPRTIIVNWQPPSEANGKITGYIIYYSTDVNAEIHDWVIEPVVGNRLTHQIQELTLDTPYYFKIQARNSKGMGPMSEAVQFRTPKAESSDKMPNDQASGSAGKGSRPVDVGPDYKPPLSGSNSPHGSPTSPLDSNMLLVIIVSVGVITIVIVVIVAVFCTRRTTSHQKKKRAACKSVNGSHKYKGNSKDVKPPDLWIHHERLELKPIDKSPDPNPIMTDTPIPRNSQDITPVDNSMDSNIHQRRNSYRGHESEDSMSTLAGRRGMRPKMMMPFDSQPPQPVISAHPIHSLDNPHHHFHSGSLASPTRSYLHHQVSPWPVGTSMSHSDRANSTESVRNTPSSDTMPASSSQPCADHQDPDSSSGAYLGSAQEEDAAQSLPTAHVRPSHPLKSFAVPAVPAAGSAYDPTLPSTPLLTQQAPSHPVHSVKTASIGTLGRTRPPMPVVVPSAPDVQETTRMLEDSESSYEPDELTKEMAHLEGLMKDLNAITTA | about 40% | about 2 fold | 682±21 |  | thicker axon bundles throughout the retina |  |  |  |  |  |  | 5.7 | 410±64 | 640±128 | 1134±68 |
